Inhibition and Ki data for 5 molecules are collected here from patent publication EP2776398B1, “SUBSTITUTED PYRAZOLYL-BASED UREA DERIVATIVES AS VANILLOID RECEPTOR LIGANDS” (Medifron DBT Inc., priority 2011, dated 2013).

Molecules are shown by their SMILES.

This experiment has as its target T1, vanilloid receptor 1 (VR1/TRPV1 receptor) (Homo sapiens, UniProt Q8NER1).
T1 construct: expressed in transfected cells; host or cells: CHO K1 cells (ECACC), stably transfected
Description: Functional testing on vanilloid receptor 1: FLIPR Ca2+ influx assay against capsaicin (Cap) in transfected CHO K1 cells (pharmacological method II). For (f) Ki (human being) [nM] Cap: 100 nM capsaicin. Format: cell-based. As to conditions: for Ki: read-out: (f) Ki (human being) [nM] Cap.
Description: […]

T1 sequence (Q8NER1 whole entry): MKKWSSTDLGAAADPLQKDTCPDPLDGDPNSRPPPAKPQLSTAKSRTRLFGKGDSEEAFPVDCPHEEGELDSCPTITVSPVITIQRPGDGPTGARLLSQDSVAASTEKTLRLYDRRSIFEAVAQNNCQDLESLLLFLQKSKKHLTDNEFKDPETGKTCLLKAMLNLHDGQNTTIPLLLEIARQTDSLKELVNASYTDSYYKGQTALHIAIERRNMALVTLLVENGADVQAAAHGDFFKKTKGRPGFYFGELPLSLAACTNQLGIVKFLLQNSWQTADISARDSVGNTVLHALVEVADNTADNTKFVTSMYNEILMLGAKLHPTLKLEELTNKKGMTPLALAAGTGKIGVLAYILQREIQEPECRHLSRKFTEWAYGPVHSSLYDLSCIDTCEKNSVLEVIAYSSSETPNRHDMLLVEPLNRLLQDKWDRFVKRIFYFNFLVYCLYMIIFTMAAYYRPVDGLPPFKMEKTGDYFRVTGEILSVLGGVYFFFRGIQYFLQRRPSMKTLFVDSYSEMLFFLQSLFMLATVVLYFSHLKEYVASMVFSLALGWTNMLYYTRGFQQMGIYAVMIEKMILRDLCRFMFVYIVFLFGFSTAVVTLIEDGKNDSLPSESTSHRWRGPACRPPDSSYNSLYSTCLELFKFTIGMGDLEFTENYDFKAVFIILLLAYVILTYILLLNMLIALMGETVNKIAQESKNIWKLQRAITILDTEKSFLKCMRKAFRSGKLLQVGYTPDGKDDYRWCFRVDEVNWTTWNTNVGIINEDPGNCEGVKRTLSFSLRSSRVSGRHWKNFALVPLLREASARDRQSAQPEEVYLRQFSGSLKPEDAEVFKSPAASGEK

Usually inhibition stands for the relative decrease from the control value, in per cent. On to `N#Cc1cccc(-n2nc(C(F)(F)F)cc2CNC(=O)Nc2ccc(CO)c(F)c2)c1` [A85, 1-[[2-(3-Cyano-phenyl)-5-(trifluoromethyl)-2H-pyrazol-3-yl]-methyl]-3-[3-fluoro-4-(hydroxymethyl)-phenyl]-urea], for which the inhibition at 5 µM (@ 5µM, human VR1 in CHO K1 cells, capsaicin, relative to maximum inhibition with 10 µM capsazepine, read-out: inhibition (as a percentage), printed in column (f) Ki (human being) [nM] Cap) is 53%.

What is called Ki is the equilibrium dissociation constant of an inhibitor or competing ligand from its target. On to `CCOc1ccc(-n2nc(C(F)(F)F)cc2CNC(=O)Nc2ccc(CO)c(F)c2)cc1C` [A79, 1-[[2-(4-Ethoxy-3-methyl-phenyl)-5-(trifluoromethyl)-2H-pyrazol-3-yl]-methyl]-3-[3-fluoro-4-(hydroxymethyl)-phenyl]-urea], for which the Ki amounted to 20 nM.

In the case of `COc1c(F)cc(C(C)C(=O)NCc2cc(C(F)(F)F)nn2-c2ccc(F)c(Cl)c2)cc1F` (centres unmarked) [A9, N-[[2-(3-Chloro-4-fluoro-phenyl)-5-(trifluoromethyl)-2H-pyrazol-3-yl]-methyl]-2-(3,5-difluoro-4-methoxy-phenyl)-propionamide], the Ki is 7 nM.

Turning to `CC(C(=O)NCc1cc(C(C)(C)C)nn1-c1cccc(Cl)c1)c1ccc(COCCO)c(F)c1` (centres unmarked) [A117, N-[[5-tert-Butyl-2-(3-chlorophenyl)-2H-pyrazol-3-yl]-methyl]-2-[3-fluoro-4-(2-hydroxy-ethoxy-methyl)-phenyl]-propionamide], the Ki stood at 9 nM.

For `CC(C(=O)NCc1cc(C(C)(C)C)nn1-c1cccc(F)c1)c1ccc(COCCO)c(F)c1` (centres unmarked) [A116, N-[[5-tert-Butyl-2-(3-fluorophenyl)-2H-pyrazol-3-yl]-methyl]-2-[3-fluoro-4-(2-hydroxy-ethoxy-methyl)-phenyl]-propionamide], the Ki is 18 nM.
